The text below walks through data of PubChem BioAssay AID1259407 (Chemical Carcinogenesis Research Information System (CCRIS), 2018).

This data set concerns CCRIS mutagenicity, Ames/micronucleus/aberration tests. The data set can be described thus: CCRIS mutagenicity studies.
Where [1] appears, read: Test System: AMES SALMONELLA TYPHIMURIUM, Strain/Indicator: TA98, Metabolic Activation: HAMSTER, LIVER, S-9, AROCLOR 1254 (10%), Method: PREINCUBATION
Setting [2] is: Test System: AMES SALMONELLA TYPHIMURIUM, Strain/Indicator: TA98, Metabolic Activation: NONE, Method: PREINCUBATION
Setting [3] is: Test System: AMES SALMONELLA TYPHIMURIUM, Strain/Indicator: TA98, Metabolic Activation: RAT, LIVER, S-9, AROCLOR 1254 (10%), Method: PREINCUBATION
Setting [4] is: Test System: AMES SALMONELLA TYPHIMURIUM, Strain/Indicator: TA100, Metabolic Activation: HAMSTER, LIVER, S-9, AROCLOR 1254 (10%), Method: PREINCUBATION
Setting [5] is: Test System: AMES SALMONELLA TYPHIMURIUM, Strain/Indicator: TA100, Metabolic Activation: NONE, Method: PREINCUBATION
The mark [6] stands for this setting: Test System: AMES SALMONELLA TYPHIMURIUM, Strain/Indicator: TA100, Metabolic Activation: RAT, LIVER, S-9, AROCLOR 1254 (10%), Method: PREINCUBATION
Where [7] appears, read: Test System: AMES SALMONELLA TYPHIMURIUM, Strain/Indicator: TA1535, Metabolic Activation: HAMSTER, LIVER, S-9, AROCLOR 1254 (10%), Method: PREINCUBATION
Where [8] appears, read: Test System: AMES SALMONELLA TYPHIMURIUM, Strain/Indicator: TA1535, Metabolic Activation: NONE, Method: PREINCUBATION
The mark [9] stands for this setting: Test System: AMES SALMONELLA TYPHIMURIUM, Strain/Indicator: TA1535, Metabolic Activation: RAT, LIVER, S-9, AROCLOR 1254 (10%), Method: PREINCUBATION
Where [10] appears, read: Test System: AMES SALMONELLA TYPHIMURIUM, Strain/Indicator: TA1537, Metabolic Activation: HAMSTER, LIVER, S-9, AROCLOR 1254 (10%), Method: PREINCUBATION
[11] abbreviates: Test System: AMES SALMONELLA TYPHIMURIUM, Strain/Indicator: TA1537, Metabolic Activation: NONE, Method: PREINCUBATION
The mark [12] stands for this setting: Test System: AMES SALMONELLA TYPHIMURIUM, Strain/Indicator: TA1537, Metabolic Activation: RAT, LIVER, S-9, AROCLOR 1254 (10%), Method: PREINCUBATION

The source made the active and inactive calls. No rule for the calls is given here.

For `CCNCC`, the mutagenic call is, setting by setting: under setting [1], “inactive; negative”; under setting [2], “inactive; negative”; under setting [3], “inactive; negative”; under setting [4], “inactive; negative”; under setting [5], “inactive; negative”; under setting [6], “inactive; negative”. The mutagenic call by setting is: under setting [7], “inactive; negative”; under setting [8], “inactive; negative”; under setting [9], “inactive; negative”; under setting [10], “inactive; negative”; under setting [11], “inactive; negative”; under setting [12], “inactive; negative”.
Regarding `CC(=O)c1oc([N+](=O)[O-])c(-c2ccccc2)c1-c1ccccc1`, the mutagenic call reads like this: (Test System: AMES SALMONELLA TYPHIMURIUM, Strain/Indicator: TA98(NR), Metabolic Activation: NONE, Method: STANDARD PLATE) “inactive; negative”; (Test System: AMES SALMONELLA TYPHIMURIUM, Strain/Indicator: TA98, Metabolic Activation: NONE, Method: STANDARD PLATE) “active; positive”; (Test System: AMES SALMONELLA TYPHIMURIUM, Strain/Indicator: TA100(NR), Metabolic Activation: NONE, Method: STANDARD PLATE) “inactive; negative”; (Test System: AMES SALMONELLA TYPHIMURIUM, Strain/Indicator: TA100, Metabolic Activation: NONE, Method: STANDARD PLATE) “active; positive”.
In the case of `COc1ccc(C(=O)c2ccccc2O)c(O)c1`, the mutagenic call runs as follows: under setting [1], “inactive; negative”; under setting [2], “inactive; negative”; under setting [3], “inactive; negative”; under setting [4], “inactive; negative”; under setting [5], “inactive; negative”; under setting [6], “inactive; negative”. Further, the mutagenic call runs as follows: under setting [7], “inactive; negative”; under setting [8], “inactive; negative”; under setting [9], “inactive; negative”; under setting [10], “active; positive”; under setting [11], “inactive; negative”; under setting [12], “active; positive”.
Consider `O=C(Nc1ccc([N+](=O)[O-])cc1Cl)c1cc(Cl)ccc1O`, for which the mutagenic call reads like this: (Test System: AMES SALMONELLA TYPHIMURIUM, Strain/Indicator: TA98(NR), Metabolic Activation: RAT, LIVER, S-9, AROCLOR 1254, Method: STANDARD PLATE) “inactive; negative”; under setting [2], “inactive; negative”; (Test System: AMES SALMONELLA TYPHIMURIUM, Strain/Indicator: TA98, Metabolic Activation: RAT, LIVER, S-9, AROCLOR 1254, Method: PREINCUBATION) “active; positive”; (Test System: AMES SALMONELLA TYPHIMURIUM, Strain/Indicator: TA1538, Metabolic Activation: NONE, Method: PREINCUBATION) “inactive; negative”; (Test System: AMES SALMONELLA TYPHIMURIUM, Strain/Indicator: TA1538, Metabolic Activation: RAT, LIVER, S-9, AROCLOR 1254, Method: PREINCUBATION) “active; positive”; (Test System: AMES SALMONELLA TYPHIMURIUM, Strain/Indicator: TA1978, Metabolic Activation: NONE, Method: PREINCUBATION) “inactive; negative”. Further, the mutagenic call by setting is: (Test System: AMES SALMONELLA TYPHIMURIUM, Strain/Indicator: TA1978, Metabolic Activation: RAT, LIVER, S-9, AROCLOR 1254, Method: PREINCUBATION) “inactive; negative”; (Test System: AMES SALMONELLA TYPHIMURIUM, Strain/Indicator: UTH8413, Metabolic Activation: NONE, Method: PREINCUBATION) “inactive; negative”; (Test System: AMES SALMONELLA TYPHIMURIUM, Strain/Indicator: UTH8413, Metabolic Activation: RAT, LIVER, S-9, AROCLOR 1254, Method: PREINCUBATION) “inactive; negative”; (Test System: AMES SALMONELLA TYPHIMURIUM, Strain/Indicator: YG1020, Metabolic Activation: RAT, LIVER, S-9, AROCLOR 1254, Method: STANDARD PLATE) “active; positive”; (Test System: AMES SALMONELLA TYPHIMURIUM, Strain/Indicator: YG1021, Metabolic Activation: RAT,LIVER, S-9, AROCLOR 1254, Method: STANDARD PLATE) “active; positive”; (Test System: AMES SALMONELLA TYPHIMURIUM, Strain/Indicator: YG1024, Metabolic Activation: RAT, LIVER, S-9, AROCLOR 1254, Method: STANDARD PLATE) “active; positive”.
Regarding `Nc1ccc(C=O)cc1`, the mutagenic call is “inactive; negative” under setting [2]; “inactive; negative” (Test System: AMES SALMONELLA TYPHIMURIUM, Strain/Indicator: TA98, Metabolic Activation: RAT LIVER S-9, PHENOBARBITAL AND BETA-NAPHTHOFLAVONE (30%), Method: PREINCUBATION); “inactive; negative” (Test System: AMES SALMONELLA TYPHIMURIUM, Strain/Indicator: TA98, Metabolic Activation: RAT LIVER S-9, PHENOBARBITAL AND BETA-NAPHTHOFLAVONE, Method: PREINCUBATION); “inactive; negative” under setting [5]; “inactive; negative” (Test System: AMES SALMONELLA TYPHIMURIUM, Strain/Indicator: TA100, Metabolic Activation: RAT LIVER S-9, PHENOBARBITAL AND BETA-NAPHTHOFLAVONE (30%), Method: PREINCUBATION); “inactive; negative” (Test System: AMES SALMONELLA TYPHIMURIUM, Strain/Indicator: TA100, Metabolic Activation: RAT LIVER S-9, PHENOBARBITAL AND BETA-NAPHTHOFLAVONE, Method: PREINCUBATION). The mutagenic call is, setting by setting: under setting [8], “inactive; negative”; (Test System: AMES SALMONELLA TYPHIMURIUM, Strain/Indicator: TA1535, Metabolic Activation: RAT LIVER S-9, PHENOBARBITAL AND BETA-NAPHTHOFLAVONE (30%), Method: PREINCUBATION) “inactive; negative”; (Test System: AMES SALMONELLA TYPHIMURIUM, Strain/Indicator: TA1535, Metabolic Activation: RAT LIVER S-9, PHENOBARBITAL AND BETA-NAPHTHOFLAVONE, Method: PREINCUBATION) “inactive; negative”; under setting [11], “inactive; negative”; (Test System: AMES SALMONELLA TYPHIMURIUM, Strain/Indicator: TA1537, Metabolic Activation: RAT LIVER S-9, PHENOBARBITAL AND BETA-NAPHTHOFLAVONE (30%), Method: PREINCUBATION) “inactive; negative”; (Test System: AMES SALMONELLA TYPHIMURIUM, Strain/Indicator: TA1537, Metabolic Activation: RAT LIVER S-9, PHENOBARBITAL AND BETA-NAPHTHOFLAVONE, Method: PREINCUBATION) “inactive; negative”. The mutagenic call runs as follows: (Test System: E.COLI, Strain/Indicator: WP2UVRA, Metabolic Activation: NONE, Method: PREINCUBATION) “inactive; negative”; (Test System: E.COLI, Strain/Indicator: WP2UVRA, Metabolic Activation: RAT LIVER S-9, PHENOBARBITAL AND BETA-NAPHTHOFLAVONE (30%), Method: PREINCUBATION) “inactive; negative”; (Test System: E.COLI, Strain/Indicator: WP2UVRA, Metabolic Activation: RAT LIVER S-9, PHENOBARBITAL AND BETA-NAPHTHOFLAVONE, Method: PREINCUBATION) “inactive; negative”.
